How the values were obtained:
[1] = biological target: inactive, unphosphorylated (0-phos), human IRAK4 FL (Full Length) (Homo sapiens (Human), UniProt Q9NWZ3); assay: IRAK4 Enzymatic DELFIA Assay, Protocol B; type: biochemical; conditions: 600 μM ATP (KM), full-length recombinant human IRAK4
Procedure: IRAK4 Enzymatic DELFIA Assay, Protocol B.
The test compound is solubilized in DMSO to a stock concentration of 30 mM. The dose response plates were prepared with a 4 mM primary compound concentration, serialized in DMSO and spotted (1 μL) into 384-well polypropylene plates as before.
20 uL of 20 mM HEPES pH=7.5, 5 mM MgCl2, 0.0025% Brij-35, 600 μM ATP, and 100 nM ERM-biotinylated peptide (AGAGRDKYKTLRQIR) was added to start the reaction, which was run for 90 minutes at RT and stopped by the addition of 20 μL 0.3M EDTA.
(§1) 50 μL of the reaction mixture was transferred to a streptavidin-coated detection plate (DELFIA streptavidin coated plates, 384-well, white plates, Perkin-Elmer Life Sciences) and incubated for 30 minutes at RT. The plates were washed 4× with 75 μL per well of PBS containing 0.05% Tween-20. Plates were then incubated with 50 μL per well of antibody cocktail of Anti-pERM antibody at 0.125 μg/mL (Cell Signaling Technology), plus Anti-Rabbit IgG EuN1 at 0.25 μg/ml (Perkin-Elmer Life Sciences) in a solution of 10 mM MOPS pH=7.5, 150 mM NaCl, 0.05% Tween-20, 0.02% NaN3, 1% BSA, 0.1% Gelatin for 45 minutes. The plates were then washed as before. 50 μL per well of DELFIA Enhancement Solution (Perkin-Elmer Life Sciences) was added to the plate and incubated for 15 minutes at RT prior to being read on an Envision Model 2104 multi-label reader using a 340 nm excitation wavelength and a […] emission wavelength for detection.

[2] = biological target: human IRAK4 FL (Full Length), phosphorylated (Homo sapiens (Human), UniProt Q9NWZ3); assay: IRAK4 Enzymatic DELFIA Assay, Protocol A; type: biochemical; conditions: 600 μM ATP (KM); full-length phosphorylated recombinant human IRAK4
Procedure: IRAK4 Enzymatic DELFIA Assay, Protocol A.
This is an in vitro assay to measure IRAK4 enzymatic activity utilizing the DELFIA (Dissociation-Enhanced Lanthanide Fluorescent Immunoassay, Perkin-Elmer) platform, with the human IRAK4 FL (Full Length) construct to characterize IRAK4 inhibitor and control compounds at 600 μM ATP (KM). The final amount of enzyme in the assay is 0.1 nM IRAK4 FL, final concentration of substrate is 50 nM, and final concentration of DMSO is 2.5%.
The test compound was solubilized in DMSO to a stock concentration of 30 mM. The dose response plates were prepared with a 4 mM primary compound concentration (40-fold multiple of the final in-assay concentration), and diluted in DMSO in a four-fold series for a total of 11 data points. 1 μL of the compound dilution plate is spotted into ultra-clear polypropylene, 384-well, U-bottom plates (Corning Life Sciences).
To begin the assay, 19 μL of reaction mixture containing 20 mM HEPES pH=7.5, 5 mM MgCl2, 0.0025% Brij-35, 600 μM ATP, 0.21 nM Full-length phosphorylated recombinant human IRAK4 (GenBank ID AF445802) are aliquoted into the polypropylene, 384-well, U-bottom plates containing 1 μL of test compound, mixed briefly and incubated for 20 minutes at room temperature (RT). Then, 20 μL of 20 mM HEPES pH=7.5, 5 mM MgCl2, 0.0025% Brij-35, 600 μM ATP, and 100 nM ERM-biotinylated peptide (AGAGRDKYKTLRQIR) is added to start the reaction. The reaction is incubated for 60 minutes at RT and stopped by the addition of 20 μL 0.3M EDTA.
as §1

Chain of human IRAK4 FL (Full Length), phosphorylated (Q9NWZ3 whole entry): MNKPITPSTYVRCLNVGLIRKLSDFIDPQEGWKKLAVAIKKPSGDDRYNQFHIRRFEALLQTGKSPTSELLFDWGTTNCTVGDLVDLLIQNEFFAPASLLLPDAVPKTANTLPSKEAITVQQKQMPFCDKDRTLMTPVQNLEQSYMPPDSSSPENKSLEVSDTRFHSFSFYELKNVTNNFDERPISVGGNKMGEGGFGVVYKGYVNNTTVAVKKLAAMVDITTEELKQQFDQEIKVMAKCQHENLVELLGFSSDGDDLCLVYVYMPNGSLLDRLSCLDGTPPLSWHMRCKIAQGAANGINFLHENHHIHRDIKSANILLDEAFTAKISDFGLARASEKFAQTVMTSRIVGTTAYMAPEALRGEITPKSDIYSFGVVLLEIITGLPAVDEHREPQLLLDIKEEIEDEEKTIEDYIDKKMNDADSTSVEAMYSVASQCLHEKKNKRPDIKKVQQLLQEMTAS
Chain of inactive, unphosphorylated (0-phos), human IRAK4 FL (Full Length) (Q9NWZ3 whole entry): as above

IC50 [1] [nM]	IC50 [2] [nM]	SMILES
4	188	CC(C)Oc1cc2c(OC[C@@H]3CCC(=O)N3)ncc(-c3ncco3)c2cc1C(N)=O [Example 2, 4-(1,3-Oxazol-2-yl)-1-{[(2S)-5-oxopyrrolidin-2-yl]methoxy}-7-(propan-2-yloxy)isoquinoline-6-carboxamide]
230	2900	Cc1c[nH]c(-c2cnc(OC[C@@H]3CCC(=O)N3)c3cc(OC(C)C)c(C(N)=O)cc23)n1 [Example 3, 4-(4-Methyl-1H-imidazol-2-yl)-1-{[(2S)-5-oxopyrrolidin-2-yl]methoxy}-7-(propan-2-yloxy)isoquinoline-6-carboxamide]
10	112	CC(C)Oc1cc2c(OC[C@@H]3CCC(=O)N3)ncc(-c3ccn(C)n3)c2cc1C(N)=O [Example 4, 4-(1-Methyl-1H-pyrazol-3-yl)-1-{[(2S)-5-oxopyrrolidin-2-yl]methoxy}-7-(propan-2-yloxy)isoquinoline-6-carboxamide]
1.1	3.7	CC(C)Oc1cc2c(OC[C@@H]3CCC(=O)N3)ncc(-c3cnn(C)c3)c2cc1C(N)=O [Example 5, 4-(1-methyl-1H-pyrazol-4-yl)-1-{[(2S)-5-oxopyrrolidin-2-yl]methoxy}-7-(propan-2-yloxy)isoquinoline-6-carboxamide]
3	227	Cc1coc(-c2cnc(OC[C@@H]3CCC(=O)N3)c3cc(OC(C)C)c(C(N)=O)cc23)n1 [Example 6, 4-(4-Methyl-1,3-oxazol-2-yl)-1-{[(2S)-5-oxopyrrolidin-2-yl]methoxy}-7-(propan-2-yloxy)isoquinoline-6-carboxamide]
3.2	57	Cc1nc(-c2cnc(OC[C@@H]3CCC(=O)N3)c3cc(OC(C)C)c(C(N)=O)cc23)oc1C [Example 7, 4-(4,5-Dimethyl-1,3-oxazol-2-yl)-1-{[(2S)-5-oxopyrrolidin-2-yl]methoxy}-7-(propan-2-yloxy)isoquinoline-6-carboxamide]
190	2100	CC(C)Oc1cc2c(OC[C@@H]3CCC(=O)N3)ncc(-c3nc(CO)c[nH]3)c2cc1C(N)=O [Example 8, 4-[4-(Hydroxymethyl)-1H-imidazol-2-yl]-1-{[(2S)-5-oxopyrrolidin-2-yl]methoxy}-7-(propan-2-yloxy)isoquinoline-6-carboxamide]
4.3	89	Cc1cnc(-c2cnc(OC[C@@H]3CCC(=O)N3)c3cc(OC(C)C)c(C(N)=O)cc23)o1 [Example 9, 4-(5-Methyl-1,3-oxazol-2-yl)-1-{[(2S)-5-oxopyrrolidin-2-yl]methoxy}-7-(propan-2-yloxy)isoquinoline-6-carboxamide]

The next lines start with the compound.

SMILES	IC50 [1] [nM]	IC50 [2] [nM]
COc1cc2c(OCC34CC3CC(=O)N4)nccc2cc1C(N)=O (racemic) [Example 29, 7-methoxy-1-[(3-oxo-2-azabicyclo[3.1.0]hex-1-yl)methoxy]isoquinoline-6-carboxamide]	350	4200
CC[C@@H]1[C@H](F)C(=O)N[C@@H]1COc1cccc2cc(C(N)=O)c(OC)nc12 [Example 1, 8-{[(2S,3S,4S)-3-Ethyl-4-fluoro-5-oxopyrrolidin-2-yl]methoxy}-2-methoxyquinoline-3-carboxamide]	2	7.5
CC[C@@H]1CC(=O)N[C@@H]1COc1ncc(NS(=O)(=O)c2ccccc2)c2cc(C(N)=O)c(OC(C)C)cc12 [Example 10, 1-{[(2S,3R)-3-ethyl-5-oxopyrrolidin-2-yl]methoxy}-4-[(phenylsulfonyl)amino]-7-(propan-2-yloxy)isoquinoline-6-carboxamide]	5700	> 100000
CC[C@@H]1CC(=O)N[C@@H]1COc1ncc(NS(=O)(=O)c2cccnc2)c2cc(C(N)=O)c(OC(C)C)cc12 [Example 11, 1-{[(2S,3R)-3-Ethyl-5-oxopyrrolidin-2-yl]methoxy}-7-(propan-2-yloxy)-4-[(pyridin-3-ylsulfonyl)amino]isoquinoline-6-carboxamide]	1300	> 100000
CC[C@@H]1CC(=O)N[C@@H]1COc1ncc(NS(=O)(=O)c2c[nH]cn2)c2cc(C(N)=O)c(OC(C)C)cc12 [Example 12, 1-{[(2S,3R)-3-Ethyl-5-oxopyrrolidin-2-yl]methoxy}-4-[(1H-imidazol-4-ylsulfonyl)amino]-7-(propan-2-yloxy)isoquinoline-6-carboxamide]	6500	> 100000
CC[C@@H]1CC(=O)N[C@@H]1COc1ncc(NS(=O)(=O)c2cn(C)cn2)c2cc(C(N)=O)c(OC(C)C)cc12 [Example 13, 1-{[(2S,3R)-3-Ethyl-5-oxopyrrolidin-2-yl]methoxy}-4-{[(1-methyl-1H-imidazol-4-yl)sulfonyl]amino}-7-(propan-2-yloxy)isoquinoline-6-carboxamide]	12000	> 100000
CC[C@@H]1CC(=O)N[C@@H]1COc1ncc(NS(=O)(=O)c2cn(C)c(C)n2)c2cc(C(N)=O)c(OC(C)C)cc12 [Example 14, 4-{[(1,2-Dimethyl-1H-imidazol-4-yl)sulfonyl]amino}-1-{[(2S,3R)-3-ethyl-5-oxopyrrolidin-2-yl]methoxy}-7-(propan-2-yloxy)isoquinoline-6-carboxamide]	15000	29000
CC[C@@H]1[C@H](F)C(=O)N[C@@H]1COc1ncc(N)c2cc(C(N)=O)c(OC)cc12 [Example 15, 4-Amino-1-{[(2S,3S,4S)-3-ethyl-4-fluoro-5-oxopyrrolidin-2-yl]methoxy}-7-methoxyisoquinoline-6-carboxamide]	0.5	2.2
CC(C)Oc1cc2c(OC[C@@H]3NC(=O)[C@@H](F)C34CC4)nccc2cc1C(N)=O [Example 16, 1-(((4R,7S)-7-fluoro-6-oxo-5-azaspiro[2.4]heptan-4-yl)methoxy)-7-isopropoxyisoquinoline-6-carboxamide]	390	4500
CC(C)Oc1cc2c(OC[C@H]3NC(=O)[C@H](F)C34CC4)nccc2cc1C(N)=O [Example 17, 1-(((4S,7R)-7-fluoro-6-oxo-5-azaspiro[2.4]heptan-4-yl)methoxy)-7-isopropoxyisoquinoline-6-carboxamide]	1.2	20.7
CC(C)Oc1cc2c(OC[C@@H]3NC(=O)[C@H](F)C34CC4)nccc2cc1C(N)=O [Example 18, 1-(((4R,7R)-7-fluoro-6-oxo-5-azaspiro[2.4]heptan-4-yl)methoxy)-7-isopropoxyisoquinoline-6-carboxamide]	870	16000
CC(C)Oc1cc2c(OC[C@H]3NC(=O)[C@@H](F)C34CC4)nccc2cc1C(N)=O [Example 19, 1-(((4S,7S)-7-fluoro-6-oxo-5-azaspiro[2.4]heptan-4-yl)methoxy)-7-isopropoxyisoquinoline-6-carboxamide]	0.6	5.4
COc1cc2c(OC[C@H]3NC(=O)[C@H](F)C34CC4)nccc2cc1C(N)=O [Example 21, 1-(((4S,7R)-7-fluoro-6-oxo-5-azaspiro[2.4]heptan-4-yl)methoxy)-7-methoxyisoquinoline-6-carboxamide]	21	38.5
NC(=O)c1cc2ccnc3c2cc1OCCOC[C@H]1C[C@@H](CO3)NC1=O [Example 28, (3S,6R)-5-oxo-2,3,4,5,6,7,9,10-octahydro-12,14-(ethanediylidene)-3,6-methanopyrido[2,3-l][1,4,11,8]trioxazacyclopentadecine-19-carboxamide]		1900
CNC(=O)c1cc2ccnc(OC[C@H]3NC(=O)[C@@H](F)[C@H]3C)c2cc1OC [Example 33, 1-(((2S,3S,4S)-4-fluoro-3-methyl-5-oxopyrrolidin-2-yl)methoxy)-7-methoxy-N-methylisoquinoline-6-carboxamide]	2000	
